From patent publication US20250114374A1, “BCL-2 INHIBITORS” (Newave Pharmaceutical Inc., priority 2021, published 2025) come the findings set out here.

For orientation: IC50 means the concentration needed to halve the response being measured.

In the assay the test system is RS4; 11 with G101V mutation. In words: In vitro anti-proliferation assay (ATPlite luminescence) in BCL-2-dependent ALL cell line RS4;11 with G101V mutation. The assay is classed as cell-based. To be noted: read-out: RS411-G101V IC50. Here is the method:
Cell antiproliferation was assayed by PerkinElmer ATPlite™ Luminescence Assay System. Briefly, the various test cancer cell lines were plated at a density of about 1×10^4 cells per well in Costar 96-well plates, and were incubated with different concentrations of compounds for about 72 hours in medium supplemented with 10% FBS. One lyophilized substrate solution vial was then reconstituted by adding 5 mL of substrate buffer solution, and was agitated gently until the solution was homogeneous. About 50 μL of mammalian cell lysis solution was added to 100 μL of cell suspension per well of a microplate, and the plate was shaken for about five minutes in an orbital shaker at ˜700 rpm. This procedure was used to lyse the cells and to stabilize the ATP. Next, 50 μL substrate solution was added to the wells and microplate was shaken for five minutes in an orbital shaker at ˜700 rpm. Finally, the luminescence was measured by a PerkinElmer TopCount® Microplate Scintillation Counter. Such assays, carried out with a range of doses of test compounds, allowed the determination of the cellular anti-antiproliferative IC50 of the compounds of the present invention.
The following table lists the IC50 values of another study for certain compounds of the invention.
For orientation: ATP-based viability assays read luminescence as a measure of living cells.

[1] abbreviates: cellular anti-proliferative IC50, about 72 hours, medium with 10% FBS, ATPlite.

Read-outs that look alike come from different tables or passages of the source.

Take `COc1cc(CN2CCN(C3CC4(CCN(c5ccc(C(=O)NS(=O)(=O)c6cc7c(c([N+](=O)[O-])c6)N[C@H](C6CCOCC6)CO7)c(N6c7cc8cc[nH]c8nc7O[C@H]7COCC[C@@H]76)c5)CC4)C3)[C@H](c3ccccc3OC(C)C)C2)cnc1OC` [Example 177, 4-(2-((R)-4-((5,6-dimethoxypyridin-3-yl)methyl)-2-(2-isopropoxyphenyl)piperazin-1-yl)-7-azaspiro[3.5]nonan-7-yl)-N-(((R)-5-nitro-3-(tetrahydro-2H-pyran-4-yl)-3,4-dihydro-2H-benzo[b][1,4]oxazin-7-yl)sulfonyl)-2-((5aS,9aR)-6,7,9,9a-tetrahydro-1H-pyrano[3,4-b]pyrrolo[3′,2′:5,6]pyrido[3,2-e][1,4]oxazin-5(5aH)-yl)benzamide]: the IC50 (Homo sapiens, RS4-11, 72 h) came out at 4 nM. Regarding `COc1cc(CN2CCN(C3CC4(CCN(c5ccc(C(=O)NS(=O)(=O)c6cc7c(c([N+](=O)[O-])c6)N[C@H](C6CCOCC6)CO7)c(N6c7cc8cc[nH]c8nc7O[C@H]7COCC[C@@H]76)c5)CC4)C3)[C@H](c3ccccc3OC(C)C)C2)cnc1N1CCOC[C@@H]1C` [Example 169, 2-[(3R,8S)-2,5-dioxa-9,15,17-triazatetracyclo[8.7.0.0^{3,8}.0^{12,16}]heptadeca-1(10),11,13,16-tetraen-9-yl]-4-{2-[(2R)-2-(2-isopropoxyphenyl)-4-({5-methoxy-6-[(3S)-3-methylmorpholin-4-yl]pyridin-3-yl}methyl)piperazin-1-yl]-7-azaspiro[3.5]nonan-7-yl}-N-[(3R)-5-nitro-3-(oxan-4-yl)-3,4-dihydro-2H-1,4-benzoxazin-7-ylsulfonyl]benzamide], the IC50 under setting [1] was 3.82 nM. For `CC(C)Oc1ccccc1[C@@H]1CN(Cc2ccc(F)c(F)c2)CCN1C1CC2(CCN(c3ccc(C(=O)NS(=O)(=O)c4cc5c(c([N+](=O)[O-])c4)N[C@H](C4CCOCC4)CO5)c(N4c5cc6cc[nH]c6nc5O[C@H]5COCC[C@@H]54)c3)CC2)C1` [Example 181, 4-(2-((R)-4-(3,4-difluorobenzyl)-2-(2-isopropoxyphenyl)piperazin-1-yl)-7-azaspiro[3.5]nonan-7-yl)-N-(((R)-5-nitro-3-(tetrahydro-2H-pyran-4-yl)-3,4-dihydro-2H-benzo[b][1,4]oxazin-7-yl)sulfonyl)-2-((5aS,9aR)-6,7,9,9a-tetrahydro-1H-pyrano[3,4-b]pyrrolo[3′,2′:5,6]pyrido[3,2-e][1,4]oxazin-5(5aH)-yl)benzamide], the IC50 (Homo sapiens, RS4-11, 72 h) is 9.6 nM.

Take `CC(C)c1ccccc1[C@H]1CN(Cc2ccc(F)c(F)c2)CCN1C1CC2(CCN(c3ccc(C(=O)NS(=O)(=O)c4ccc(NCC5CCOCC5)c([N+](=O)[O-])c4)c(N4c5cc6cc[nH]c6nc5O[C@H]5COCC[C@@H]54)c3)CC2)C1` [Example 166, 4-{2-[(2S)-4-[(3,4-difluorophenyl)methyl]-2-(2-isopropylphenyl)piperazin-1-yl]-7-azaspiro[3.5]nonan-7-yl}-2-[(3R,8S)-2,5-dioxa-9,15,17-triazatetracyclo[8.7.0.0^{3,8}.0^{12,16}]heptadeca-1(10),11,13,16-tetraen-9-yl]-N-{3-nitro-4-[(oxan-4-ylmethyl)amino]benzenesulfonyl}benzamide]: the IC50 under setting [1] worked out at 585 nM.

Turning to `CC(C)Oc1ccccc1[C@@H]1CN([C@H](C)c2ccc(F)c(F)c2)CCN1C1CC2(CCN(c3ccc(C(=O)NS(=O)(=O)c4cc5c(c([N+](=O)[O-])c4)N[C@H](C4CCOCC4)CO5)c(N4c5cc6cc[nH]c6nc5O[C@H]5COCC[C@@H]54)c3)CC2)C1` [Example 242, 4-{2-[(2R)-4-[(1R)-1-(3,4-difluorophenyl)ethyl]-2-(2-isopropoxyphenyl)piperazin-1-yl]-7-azaspiro[3.5]nonan-7-yl}-2-[(3R,8S)-2,5-dioxa-9,15,17-triazatetracyclo[8.7.0.0^{3,8}.0^{12,16}]heptadeca-1(10),11,13,16-tetraen-9-yl]-N-[(3R)-5-nitro-3-(oxan-4-yl)-3,4-dihydro-2H-1,4-benzoxazin-7-ylsulfonyl]benzamide], the IC50 under setting [1] was found to be 97.8 nM.
